Experimental data as given in patent USRE50957E1, “Molecular rheostat for cofactor balance” (The Regents of the University of California, priority 2016, dated 2026).

Key:
[1] = molecular target: G. stearothermophilus glyceraldehyde-3-phosphate dehydrogenase (GsGap, gapDH WT), wild type, SEQ ID NO:6 (Geobacillus stearothermophilus, UniProt P00362); assay: Kinetics and cofactor specificity of wild type GsGap (gapDH WT); settings: cofactor, 50 mM tris pH 7.5, 340 nm
[2] = molecular target: G. stearothermophilus glyceraldehyde-3-phosphate dehydrogenase (GsGap) mutant mGapDH (mGap, gapDH M6), D34A/L35R/T36K relative to SEQ ID NO:6 (Geobacillus stearothermophilus, UniProt P00362, D34A/L35R/T36K); assay: Kinetics and cofactor specificity of triple mutant mGap (mGapDH); format: biochemical, G. stearothermophilus ATCC12980; settings: 50 mM tris pH 7.5, 340 nm
Sequence of G. stearothermophilus glyceraldehyde-3-phosphate dehydrogenase (GsGap) mutant mGapDH (mGap, gapDH M6), D34A/L35R/T36K relative to SEQ ID NO:6 (P00362 whole entry D34A/L35R/T36K): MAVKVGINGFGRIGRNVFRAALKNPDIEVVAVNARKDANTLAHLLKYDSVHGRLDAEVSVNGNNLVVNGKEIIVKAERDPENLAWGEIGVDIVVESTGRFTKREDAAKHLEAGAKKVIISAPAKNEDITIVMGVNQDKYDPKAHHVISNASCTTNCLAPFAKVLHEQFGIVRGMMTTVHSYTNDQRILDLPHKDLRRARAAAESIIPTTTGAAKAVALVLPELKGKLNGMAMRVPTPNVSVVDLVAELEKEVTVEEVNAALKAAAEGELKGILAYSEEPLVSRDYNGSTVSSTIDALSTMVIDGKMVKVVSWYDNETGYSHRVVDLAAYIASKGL
Experimental: Enzyme activity and optimization. All of the enzymes used in this work were assayed. The enzymes were assayed in 50 mM tris buffer pH 7.5, 5 mM MgCl, and 5 mM KCl which mirrors the final reaction conditions. The activity of NAD(P)H producing or consuming reactions were monitored at 340 nm. The activity of ATP consuming enzymes were monitored using a coupled assay with Zwf and NADP^+ at 340 nm.
To implement the “molecular rheostat” module, GapDH enzyme was engineered that efficiently uses NADP^+. […] Although the cofactor specificity of GsGap has adjusted before by sequence-based design, the mutant only slightly preferred NADP^+ over NAD^+. To more strongly flip the cofactor specificity of GsGap the crystal structure was examined and basic residues introduced into the loop region proximate to the 2′OH of NAD′ that may help stabilize binding of a 2′ phosphate in NADP^+. A series of mutations were made altering residues D34, L35, and T36 of SEQ ID NO:6. The kinetics and specificity of the best enzyme, a D34A/L35R/T36K triple mutant (herein referred to as mGap), were obtained.

Sequence of G. stearothermophilus glyceraldehyde-3-phosphate dehydrogenase (GsGap, gapDH WT), wild type, SEQ ID NO:6 (P00362 whole entry): as the sequence (P00362 whole entry D34A/L35R/T36K) above, with A34D, R35L, K36T counted along it

SMILES: NC(=O)c1ccc[n+]([C@@H]2O[C@H](COP(=O)([O-])OP(=O)(O)OC[C@H]3O[C@@H](n4cnc5c(N)ncnc54)[C@H](O)[C@@H]3O)[C@@H](O)[C@H]2O)c1 [NAD+, nicotinamide adenine dinucleotide]
- Km [1]: 1500 ± 300 µM
- kcat ([2]; cofactor varied): 0.2 ± 0.04 µM/min/mg
- Km ([2]; cofactor): 600 ± 400 µM
